Test results published in article PMC6273138, “Inhibitory Effects of Aschantin on Cytochrome P450 and Uridine 5′-diphospho-glucuronosyltransferase Enzyme Activities in Human Liver Microsomes” (Molecules, 2016).

What was measured:
UGT2B7 = target: T1, UGT2B7 (Homo sapiens, UniProt P16662); assay: UGT2B7-catalyzed naloxone 3-β-D-glucuronidation inhibition in pooled human liver microsomes; type: in vitro ADME
T1 construct: using pooled human liver microsomes incubated with the cocktail of UGT substrates; tissue Corning Life Sciences 452161; host or cells: pooled human liver microsomes
T1 sequence (P16662 24-529): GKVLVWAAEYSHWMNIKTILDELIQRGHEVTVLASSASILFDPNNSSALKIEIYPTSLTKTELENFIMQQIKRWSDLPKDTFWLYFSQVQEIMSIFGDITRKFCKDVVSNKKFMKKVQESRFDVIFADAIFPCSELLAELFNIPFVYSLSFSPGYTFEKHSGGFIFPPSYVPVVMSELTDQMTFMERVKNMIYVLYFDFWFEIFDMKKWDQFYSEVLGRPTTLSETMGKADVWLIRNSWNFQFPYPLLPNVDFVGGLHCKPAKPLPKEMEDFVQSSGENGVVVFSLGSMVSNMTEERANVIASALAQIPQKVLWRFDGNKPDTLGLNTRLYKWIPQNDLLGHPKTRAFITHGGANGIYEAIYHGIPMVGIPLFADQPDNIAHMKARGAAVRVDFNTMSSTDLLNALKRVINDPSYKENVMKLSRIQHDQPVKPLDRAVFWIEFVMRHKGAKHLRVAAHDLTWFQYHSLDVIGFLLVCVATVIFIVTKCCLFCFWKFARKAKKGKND
Method: (§1) The extents of aschantin on UGT1A1, UGT1A3, UGT1A4, UGT1A6, UGT1A9, and UGT2B7 were evaluated by LC-MS/MS, using pooled human liver microsomes incubated with the cocktail of UGT substrates. The method was modified from that of Joo et al..
(§2) The metabolites formed from the six UGT cocktail substrates were simultaneously measured using the LC-MS/MS method. […] The mass spectrometer was equipped with an ESI source and was operated in both positive and negative ion modes. […] Each metabolite was quantified via SRM in the negative ion (chenodeoxycholic acid 24-acyl-β-glucuronide, 567.2 > 391.0; mycophenolic acid glucuronide, 495.2 > 318.9; propofol glucuronide, 353.3 > 177.1) and positive ion (SN-38 glucuronide, 569.0 > 393.0; trifluoperazine glucuronide, 584.2 > 408.1; N-acetylserotonin-β-D-glucuronide, 395.2 > 219.0; naloxone 3-β-D-glucuronide, 504.0 > 310.0; meloxicam, 352.0 > 115.1) modes.

UGT1A3 = target: T2, UGT1A3 (Homo sapiens, UniProt P35503); assay: UGT1A3-catalyzed chenodeoxycholic acid 24-acyl-glucuronidation inhibition in pooled human liver microsomes; type: in vitro ADME
T2 construct: using pooled human liver microsomes incubated with the cocktail of UGT substrates; tissue Corning Life Sciences 452161; host or cells: pooled human liver microsomes
T2 sequence (P35503 29-534): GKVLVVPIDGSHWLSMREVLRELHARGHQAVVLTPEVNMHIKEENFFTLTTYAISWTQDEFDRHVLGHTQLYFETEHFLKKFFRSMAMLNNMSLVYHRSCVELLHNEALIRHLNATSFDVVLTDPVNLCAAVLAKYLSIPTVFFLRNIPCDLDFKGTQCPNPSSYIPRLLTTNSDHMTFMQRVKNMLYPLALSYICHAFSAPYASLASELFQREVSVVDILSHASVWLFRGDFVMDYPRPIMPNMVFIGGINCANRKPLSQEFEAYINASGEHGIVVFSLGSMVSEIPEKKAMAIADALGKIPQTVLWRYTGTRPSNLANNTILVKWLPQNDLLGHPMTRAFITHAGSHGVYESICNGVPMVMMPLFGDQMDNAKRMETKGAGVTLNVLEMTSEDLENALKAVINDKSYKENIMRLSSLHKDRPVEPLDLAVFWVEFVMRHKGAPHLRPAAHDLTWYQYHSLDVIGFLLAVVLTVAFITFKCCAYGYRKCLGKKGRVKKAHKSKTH
Method: as §1, §2

CYP3A4 [1] = target: T3, CYP3A4 (Homo sapiens, UniProt P08684); assay: CYP3A4-catalyzed midazolam 1′-hydroxylase inhibition in pooled human liver microsomes; settings: for IC50: CYP3A4 midazolam 1′-hydroxylase, 2.5 µM midazolam
T3 sequence (P08684 2-503): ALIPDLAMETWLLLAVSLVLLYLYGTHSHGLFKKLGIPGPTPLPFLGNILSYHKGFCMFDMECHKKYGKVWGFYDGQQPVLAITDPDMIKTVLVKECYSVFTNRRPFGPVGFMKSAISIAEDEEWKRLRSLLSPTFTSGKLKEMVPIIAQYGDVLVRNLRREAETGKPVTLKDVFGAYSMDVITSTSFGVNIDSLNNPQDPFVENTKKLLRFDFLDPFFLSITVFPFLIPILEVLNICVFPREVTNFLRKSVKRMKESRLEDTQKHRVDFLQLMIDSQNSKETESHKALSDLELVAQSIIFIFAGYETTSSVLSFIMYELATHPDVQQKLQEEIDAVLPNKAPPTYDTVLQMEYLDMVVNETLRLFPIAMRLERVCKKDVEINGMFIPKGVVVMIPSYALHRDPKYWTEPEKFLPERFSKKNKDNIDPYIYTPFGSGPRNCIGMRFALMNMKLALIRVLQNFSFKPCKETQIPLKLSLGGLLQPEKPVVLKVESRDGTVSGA
Method: (§3) The degrees of inhibition (the IC50 values) of aschantin toward CYP1A2, CYP2A6, CYP2C8, CYP2C9, CYP2C19, CYP2D6, and CYP3A4 were evaluated using pooled human liver microsomes employing a cocktail of CYP substrates and liquid chromatography-tandem mass spectrometry (LC-MS/MS). […] After 3 min pre-incubation at 37 °C, the reactions were initiated by addition of NADPH and incubation proceeded for 15 min at 37 °C in a shaking water bath. The reaction was stopped by placing the tubes on ice and adding 100 µL amounts of ice-cold methanol containing internal standards (^13C2,^15N-acetaminophen for acetaminophen and N-desethylamodiaquine; d9-1′-hydroxybufuralol for 4′-hydroxydiclofenac; and 7-hydroxycoumarin, 4′-hydroxy-mephenytoin, 1′-hydroxybufuralol, and 1′-hydroxymidazolam). Then the incubation mixtures were centrifuged at 13,000× g for 4 min at 4 °C. All assays were performed in triplicate and the average values were used in calculations.
(§4) To this end, we employed a tandem mass spectrometer (TSQ Quantum Access, Thermo Scientific, San Jose, CA, USA) coupled to a Nanospace SI-2 LC system (Shiseido, Tokyo, Japan). The column and autosampler temperatures were 50 °C and 6 °C, respectively. The mass spectrometer was equipped with an electrospray ionization (ESI) source and was operated in positive ion mode. The ESI source settings for metabolite ionization were as follows: capillary voltage, 4200 V; vaporizer temperature, 350 °C; capillary temperature 330 °C; sheath gas pressure, 35 psi; and auxiliary gas pressure, 15 psi. […] Analytical data were processed using Xcalibur® software (Thermo Scientific).

CYP2C8 = target: T4, CYP2C8 (Homo sapiens, UniProt P10632); assay: CYP2C8-catalyzed amodiaquine N-de-ethylase inhibition in pooled human liver microsomes; settings: for IC50: CYP2C8 amodiaquine N-de-ethylase, 2.0 µM amodiaquine
T4 sequence (P10632 1-490): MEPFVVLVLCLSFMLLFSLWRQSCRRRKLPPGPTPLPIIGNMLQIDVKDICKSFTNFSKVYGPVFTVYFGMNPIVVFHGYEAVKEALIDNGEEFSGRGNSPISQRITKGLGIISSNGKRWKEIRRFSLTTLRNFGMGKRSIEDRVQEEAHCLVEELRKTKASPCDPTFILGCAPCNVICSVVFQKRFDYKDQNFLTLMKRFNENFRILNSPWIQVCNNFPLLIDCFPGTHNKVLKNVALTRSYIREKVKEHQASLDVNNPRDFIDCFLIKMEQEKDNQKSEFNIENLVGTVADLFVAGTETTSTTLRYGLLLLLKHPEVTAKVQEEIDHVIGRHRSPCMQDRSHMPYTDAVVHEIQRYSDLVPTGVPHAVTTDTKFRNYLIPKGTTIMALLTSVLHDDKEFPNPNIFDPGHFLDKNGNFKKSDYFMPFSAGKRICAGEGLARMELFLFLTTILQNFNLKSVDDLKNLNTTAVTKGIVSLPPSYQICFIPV
Method: as §3, §4
The apparent kinetic inhibitory potentials (the Ki values) were estimated from the fitted curves using Enzyme Kinetics version 1.1 (Systat Software Inc.).

CYP3A4 [2] = target: T3, CYP3A4; assay: Mechanism-based (time- and concentration-dependent) inactivation of CYP3A4 in human liver microsomes; type: in vitro ADME; settings: CYP3A4-mediated midazolam 1′-hydroxylation
Method: The microsomes (1 mg/mL) were pre-incubated with various concentrations of aschantin in 50 mM potassium phosphate buffer (pH 7.4) in the presence of NADPH. Aliquots (10 µL) of the incubated mixtures were withdrawn at 5, 10, 15, and 20 min after incubation commenced and added to other tubes containing the CYP substrates (2 µM amodiaquine for CYP2C8, 10 µM diclofenac for CYP2C9, 100 µM [S]-mephenytoin for CYP2C19, or 2 µM midazolam for CYP3A4), 1 mM NADPH, 50 mM potassium phosphate buffer (pH 7.4), and 10 mM MgCl2, in 90 µL reaction mixtures. […] Aliquots (5 µL) of the diluted supernatants were analyzed by LC-MS/MS, as described above.

[3] = aschantin at 200 µM, human liver microsomes
[4] = IC50 No Pre-incubation, pooled human liver microsomes, no pre-incubation
[5] = IC50 With Pre-incubation, 30 min pre-incubation with microsomes and NADPH

## COc1cc([C@H]2OC[C@H]3[C@@H]2CO[C@@H]3c2ccc3c(c2)OCO3)cc(OC)c1OC [Aschantin]
UGT2B7; UGT2B7-catalyzed naloxone 3-β-D-glucuronidation, 1 µM naloxone, pooled human liver microsomes
  IC50: > 200 µM
UGT2B7; [3]
  inhibition of UGT2B7-catalyzed naloxone 3-β-D-glucuronidation: not inhibited
UGT1A3; UGT1A3-catalyzed chenodeoxycholic acid 24-acyl-glucuronidation, 2 µM chenodeoxycholic acid, pooled human liver microsomes
  IC50: > 200 µM
UGT1A3; [3]
  inhibition of UGT1A3-catalyzed chenodeoxycholic acid 24-acyl-glucuronidation: not inhibited
CYP3A4 [1]; [4]
  IC50: 57.5 µM
CYP3A4 [1]; [5]
  IC50: 14.4 µM
CYP3A4 [1]; human, pooled human liver microsomes, pH 7.4, probe midazolam (2.5 µM), 1′-hydroxylation
  IC50 shift at 0.5 h: > 2.5
CYP2C8; [4]
  IC50: 27.8 µM
CYP2C8; [5]
  IC50: 5.3 µM
CYP2C8; human, pooled human liver microsomes, pH 7.4, probe amodiaquine (2.0 µM), N-de-ethylation
  IC50 shift at 0.5 h: > 2.5
CYP3A4 [2]; read-out: Ki (apparent)
  Ki: 12.6 µM
CYP3A4 [2]; pH 7.4, probe midazolam (2 µM)
  kinact: 0.00103 s⁻¹
